Measured values published in ChEMBL document CHEMBL1201862, “PubChem BioAssay data set” (2004).
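Step 1: Grow cells in 96-well plates. Step 2: Expose to compound for 48 hours at 5 concentrations. Step 3: Interpolate endpoints linearly; if unreached, use highest concentration. GI50: concentration for 50% inhibition of growth.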 Activity calls are given as the source filed them. Rule as the data show it: active = GI50 up to about 1.1 µM and inactive = higher.

Legend:
Assay in all cases: NCI tumour cell line growth inhibition, 48 h
[1] = test system: HL-60
[2] = test system: MOLT-4
[3] = test system: MDA-MB-231
[4] = test system: NCI-H460
[5] = test system: SN12C
[6] = test system: CAKI-1
[7] = test system: NCI/ADR-RES
[8] = test system: OVCAR-8
[9] = test system: A549
[10] = test system: OVCAR-3
[11] = test system: NCI-H226
[12] = test system: TK-10
[13] = test system: SK-MEL-28
[14] = test system: A498
[15] = test system: COLO 205
[16] = test system: MCF7
[17] = test system: SK-MEL-5
[18] = test system: HOP-62
[19] = test system: NCI-H522
[20] = test system: MDA-N

## COC(=O)C1=C(C(=O)OC)SC2(S1)C(C(=O)OC)=C(C(=O)OC)Sc1c2ss/c1=N/C(C)(C)C
[1]
  GI50: 0.753 µM (active)
[2]
  GI50: 0.417 µM (active)
[3]
  GI50: 1.64 µM (inactive)
[4]
  GI50: 0.533 µM (active)
[5]
  GI50: 1.22 µM (inactive)
[6]
  GI50: 1.53 µM (inactive)
[7]
  GI50: 2.5 µM (inactive)
[8]
  GI50: 1.71 µM (inactive)
[9]
  GI50: 2.43 µM (inactive)
[10]
  GI50: 1.67 µM (inactive)
[11]
  GI50: 3.18 µM (inactive)
[12]
  GI50: 1.64 µM (inactive)
[13]
  GI50: 2.07 µM (inactive)
[14]
  GI50: 1.92 µM (inactive)
[15]
  GI50: 1.45 µM (inactive)
[16]
  GI50: 1.26 µM (inactive)
[17]
  GI50: 1.91 µM (inactive)
[18]
  GI50: 3.72 µM (inactive)
[19]
  GI50: 0.555 µM (active)

## Oc1ccccc1/C=N/N1C(=S)N(C23CC4CC(CC(C4)C2)C3)C(=N\c2ccccc2)/C1=N/c1ccccc1
[2]
  GI50: 3.92 µM (inactive)
[3]
  GI50: 8.04 µM (inactive)
[4]
  GI50: 71.8 µM (inactive)
[5]
  GI50: > 100 µM (inactive)
[6]
  GI50: > 100 µM (inactive)
[7]
  GI50: > 100 µM (inactive)
[8]
  GI50: > 100 µM (inactive)
[9]
  GI50: > 100 µM (inactive)
[10]
  GI50: > 100 µM (inactive)
[11]
  GI50: > 100 µM (inactive)
[20]
  GI50: > 100 µM (inactive)
[12]
  GI50: > 100 µM (inactive)
[13]
  GI50: > 100 µM (inactive)
[15]
  GI50: 94.4 µM (inactive)
[17]
  GI50: 23.4 µM (inactive)
[18]
  GI50: > 100 µM (inactive)
[19]
  GI50: 12.8 µM (inactive)

## N#CC1C(=O)NC(=O)C(C#N)C1c1ccc(Cl)c(Cl)c1 (configuration not stated)
[1]
  GI50: 35.4 µM (inactive)
[2]
  GI50: 26.9 µM (inactive)
[3]
  GI50: < 0.01 µM (active)
[4]
  GI50: 30.1 µM (inactive)
[5]
  GI50: < 0.01 µM (active)
[6]
  GI50: 22.4 µM (inactive)
[7]
  GI50: 28 µM (inactive)
[8]
  GI50: 37.4 µM (inactive)
[9]
  GI50: 49.3 µM (inactive)
[10]
  GI50: 24.2 µM (inactive)
[12]
  GI50: 35.3 µM (inactive)
[13]
  GI50: 30.6 µM (inactive)
[15]
  GI50: > 100 µM (inactive)
[16]
  GI50: 34.4 µM (inactive)
[17]
  GI50: 20.9 µM (inactive)
[18]
  GI50: 20.4 µM (inactive)
[19]
  GI50: 15.7 µM (inactive)

## N=C(N)SCc1nc(-c2ccc(Cl)cc2)no1
[1]
  GI50: 13.8 µM (inactive)
[2]
  GI50: 3.56 µM (inactive)
[3]
  GI50: 12.6 µM (inactive)
[4]
  GI50: 23.8 µM (inactive)
[5]
  GI50: 17.8 µM (inactive)
[6]
  GI50: 14 µM (inactive)
[7]
  GI50: 27.9 µM (inactive)
[8]
  GI50: 30.1 µM (inactive)
[9]
  GI50: 38.4 µM (inactive)
[10]
  GI50: 11.9 µM (inactive)
[11]
  GI50: > 100 µM (inactive)
[12]
  GI50: 20.6 µM (inactive)
[13]
  GI50: 16.9 µM (inactive)
[14]
  GI50: 16.8 µM (inactive)
[15]
  GI50: 14.6 µM (inactive)
[16]
  GI50: 12.9 µM (inactive)
[17]
  GI50: 31.1 µM (inactive)
[18]
  GI50: 27.3 µM (inactive)
[19]
  GI50: 10.6 µM (inactive)

## COc1ccc(-n2c(-c3ccccc3)cc(-c3cccs3)c2-c2cccs2)cc1
[2]
  GI50: > 100 µM (inactive)
[3]
  GI50: 10.1 µM (inactive)
[4]
  GI50: > 100 µM (inactive)
[5]
  GI50: > 100 µM (inactive)
[6]
  GI50: > 100 µM (inactive)
[7]
  GI50: > 100 µM (inactive)
[8]
  GI50: > 100 µM (inactive)
[9]
  GI50: 39.4 µM (inactive)
[10]
  GI50: > 100 µM (inactive)
[11]
  GI50: > 100 µM (inactive)
[12]
  GI50: > 100 µM (inactive)
[13]
  GI50: > 100 µM (inactive)
[14]
  GI50: > 100 µM (inactive)
[15]
  GI50: > 100 µM (inactive)
[16]
  GI50: > 100 µM (inactive)
[17]
  GI50: > 100 µM (inactive)
[18]
  GI50: > 100 µM (inactive)
[19]
  GI50: > 100 µM (inactive)

## CC1NOC(=O)C1/N=N/c1ccccc1Br (configuration not stated)
[1]
  GI50: 18.9 µM (inactive)
[2]
  GI50: 29 µM (inactive)
[4]
  GI50: 21.7 µM (inactive)
[5]
  GI50: 24.5 µM (inactive)
[6]
  GI50: 16.8 µM (inactive)
[8]
  GI50: 22 µM (inactive)
[9]
  GI50: 24.2 µM (inactive)
[10]
  GI50: 20.5 µM (inactive)
[11]
  GI50: 31.6 µM (inactive)
[12]
  GI50: 24.5 µM (inactive)
[13]
  GI50: 31 µM (inactive)
[14]
  GI50: 26.8 µM (inactive)
[15]
  GI50: 20.6 µM (inactive)
[17]
  GI50: 15.3 µM (inactive)
[18]
  GI50: 43.9 µM (inactive)
[19]
  GI50: 18.5 µM (inactive)

## CNC(=O)OCc1nc(SC(C)C)n(C)c1COC(=O)NC
[1]
  GI50: 57 µM (inactive)
[2]
  GI50: 44.8 µM (inactive)
[4]
  GI50: 72.8 µM (inactive)
[5]
  GI50: > 100 µM (inactive)
[6]
  GI50: > 72.3 µM (inactive)
[7]
  GI50: > 100 µM (inactive)
[8]
  GI50: > 100 µM (inactive)
[9]
  GI50: > 100 µM (inactive)
[10]
  GI50: > 100 µM (inactive)
[11]
  GI50: > 100 µM (inactive)
[13]
  GI50: > 100 µM (inactive)
[14]
  GI50: > 100 µM (inactive)
[15]
  GI50: > 100 µM (inactive)
[16]
  GI50: > 100 µM (inactive)
[17]
  GI50: > 100 µM (inactive)
[18]
  GI50: > 100 µM (inactive)
[19]
  GI50: 58.5 µM (inactive)

## CC(=O)NC1C(OCc2ccccc2)OC(COC(=O)CCCCCCCCCCNC(=O)CCNc2ccc([N+](=O)[O-])c3[nH]c4ccc(O)cc4c(=O)c23)C(O)C1OC(C)C(=O)N[C@H](C(=O)N[C@H](CCC(=O)O)C(N)=O)C(C)C (some centres not stated)
[1]
  GI50: 63.4 µM (inactive)
[2]
  GI50: 43.2 µM (inactive)
[4]
  GI50: > 100 µM (inactive)
[5]
  GI50: 64 µM (inactive)
[6]
  GI50: > 100 µM (inactive)
[8]
  GI50: > 100 µM (inactive)
[9]
  GI50: > 100 µM (inactive)
[10]
  GI50: 84.9 µM (inactive)
[11]
  GI50: 36.3 µM (inactive)
[12]
  GI50: > 100 µM (inactive)
[13]
  GI50: > 100 µM (inactive)
[14]
  GI50: 69.8 µM (inactive)
[15]
  GI50: 32.4 µM (inactive)
[17]
  GI50: > 100 µM (inactive)
[18]
  GI50: > 100 µM (inactive)
[19]
  GI50: 17.4 µM (inactive)

## COc1ccc(CC2C(=O)NC(C)C(=O)N(C)C3C(=O)N(C)C(Cc4ccc(O)c(c4)Oc4ccc(cc4)C3O)C(=O)NC(C)C(=O)NC(C)C(=O)N2C)cc1.COc1ccc(CC2C(=O)NC(C)C(=O)N(C)C3Cc4ccc(cc4)Oc4cc(ccc4O)CC(C(=O)NC(C)C(=O)NC(C)C(=O)N2C)N(C)C3=O)cc1 (configuration not stated)
[1]
  GI50: 0.01 µM (active)
[2]
  GI50: 0.01 µM (active)
[3]
  GI50: 0.0115 µM (active)
[4]
  GI50: 0.0413 µM (active)
[6]
  GI50: 0.137 µM (active)
[7]
  GI50: 1.5 µM (inactive)
[8]
  GI50: 0.0128 µM (active)
[9]
  GI50: 0.0177 µM (active)
[10]
  GI50: 0.01 µM (active)
[11]
  GI50: 0.00233 µM (active)
[12]
  GI50: 0.0408 µM (active)
[13]
  GI50: 0.00344 µM (active)
[14]
  GI50: 0.0282 µM (active)
[15]
  GI50: 0.03 µM (active)
[16]
  GI50: 0.00215 µM (active)
[17]
  GI50: 0.0168 µM (active)
[18]
  GI50: 0.0552 µM (active)
[19]
  GI50: 0.01 µM (active)

## CC(=O)NNc1nc(C)c(C(=O)NNC(=O)C(=O)Nc2ccc(C)c(C)c2)s1
[1]
  GI50: 70.8 µM (inactive)
[2]
  GI50: 39.6 µM (inactive)
[4]
  GI50: 95.3 µM (inactive)
[5]
  GI50: > 100 µM (inactive)
[6]
  GI50: > 100 µM (inactive)
[8]
  GI50: 55.5 µM (inactive)
[9]
  GI50: > 100 µM (inactive)
[10]
  GI50: 21.3 µM (inactive)
[11]
  GI50: > 100 µM (inactive)
[12]
  GI50: > 100 µM (inactive)
[13]
  GI50: > 100 µM (inactive)
[14]
  GI50: > 100 µM (inactive)
[15]
  GI50: > 100 µM (inactive)
[17]
  GI50: > 100 µM (inactive)
[18]
  GI50: > 100 µM (inactive)
[19]
  GI50: 18.5 µM (inactive)

## NNC(=S)NCCNC(=S)NN
[1]
  GI50: > 100 µM (inactive)
[2]
  GI50: > 100 µM (inactive)
[3]
  GI50: 30.3 µM (inactive)
[4]
  GI50: > 100 µM (inactive)
[5]
  GI50: > 100 µM (inactive)
[6]
  GI50: > 100 µM (inactive)
[9]
  GI50: > 100 µM (inactive)
[10]
  GI50: > 100 µM (inactive)
[20]
  GI50: > 100 µM (inactive)
[13]
  GI50: > 100 µM (inactive)
[15]
  GI50: > 100 µM (inactive)
[17]
  GI50: > 100 µM (inactive)
[18]
  GI50: > 100 µM (inactive)
[19]
  GI50: > 100 µM (inactive)
